Literature values in patent US9333175B2, “Controlled release levetiracetam formulations and methods for producing the same” (Mylan Inc., priority 2010, dated 2016).

Settings: A. J. Gower et al., Eur. J. Pharmacol., 222, 1992, 193-203

| Compound | activity in the treatment of epilepsy |
| --- | --- |
| CC[C@H](C(N)=O)N1CCCC1=O [(R)-(+)-alpha-ethyl-2-oxo-1-pyrrolidine acetamide] | completely lacks activity |
| CC[C@@H](C(N)=O)N1CCCC1=O [Levetiracetam, (S)-(−)-alpha-ethyl-2-oxo-1-pyrrolidine acetamide] | effective in the treatment of epilepsy |
